The text below walks through data of PMC10420963, “Exploring Novel Drug Combinations: The Therapeutic Potential of Selanyl Derivatives for Leishmania Treatment” (Molecules, 2023).

For data set [1], the system named is L. infantum promastigotes. Briefly: Drug combination (FICI) assay on L. infantum promastigotes. The data set is classed as cell-based, Leishmania infantum. Particulars: for ƩFICI50: 48 h; for ƩFICI: combined with the reference drugs AMB, MIL, and PMN (bound for all three). How it is done:
To determine the nature of the interaction, it is crucial to choose the appropriate doses. Thus, the evaluation of the combination was carried out by a dose–response linear dilution experiment, for which the IC50 value of each substance alone was determined and multiplied by 0.2×, 0.4×, 0.6×, 0.8×, 1×, 1.2×, 1.4×, 1.6×, 1.8×, and 2× times, in order to obtain the different dilutions. […] Compound A6 stood out in this experiment, with synergistic interactions in combination with MIL (ƩFICI = 0.44), borderline synergistic interaction combined with PMN (ƩFICI = 0.54), but without interaction when combined with AMB (ƩFICI = 0.70).
The fractional inhibitory concentration index (FICI) was used to describe the interaction between the lead compounds A4–A6 and A8 with AmB, PMN and MIL. The compounds were studied in vitro against L. infantum promastigotes after 48 h of treatment. For this purpose, different increasing concentration ratios (0.2×, 0.4×, 0.6×, 0.8×, 1×, 1.2×, 1.4×, 1.6×, 1.8× and 2× times the IC50 of the compounds) were established. Finally, synergy was defined as FICI < 0.5, non-interaction as 0.5 < FICI < 4, and antagonism as FICI > 4. FICI values were obtained from four independent experiments.

Data set [2] relates to L. infantum promastigotes. Nature of the data set: Leishmanicidal activity against L. infantum promastigotes (MTT assay). The data set is classed as cell-based, Leishmania infantum. Here is the method: (§1) Promastigotes. L. major (clone VI, MHOM/IL/80) and L. infantum (clone, BCN-150) parasites were cultured at 26 °C under continuous shaking in M199 1× medium (Sigma, St. Louis, MO, USA) supplemented with heat-inactivated fetal bovine serum (FBS), 25 mM HEPES (pH 7), 0.1 mM adenine, 0.0005% (w/v) haemin, […], 0.0005% (w/v) biotin, 100 IU/mL penicillin and […]. For each experiment, the culture medium was changed everyday in order to achieve parasite in exponential growth phase.
(§2) In order to determine the leishmanicidal activity of the compounds obtained in this study, promastigotes of L. major and L. infantum strains were seeded in 96-well plates (3 ×·10^6 parasite/mL) in exponential growth phase at increasing concentrations (1–500 μM) of the compounds and maintained at 26 °C. After 48 h of incubation, the IC50 was determined by MTT assay. The absorbance was measured in a MultiskanEX photometric plate reader for microplates at 540 nm. Data were obtained from three independent experiments performed in triplicate.

Data set [3] in a line: Cytotoxicity in PMA-differentiated THP-1 macrophages (MTT assay). The data set is classed as cell-based. Particulars: human, pH 7.2, 48 h of treatment, read-out: THP-1 Cells CC50. How it is done:
Human monocytic leukemia cell line THP-1 cells were cultured in RMPI 1640 medium (Gibco, Leiden, The Netherlands) supplemented with 10% heat-inactivated FBS, 5% penicillin/streptomycin, 1 mM HEPES, 2 mM glutamine at pH 7.2 at 36 °C and 5% CO2.
THP-1 cells were seeded at a concentration of 8 × 10^5 cells/mL in 96-well plates and incubated for 24 h with phorbol 12-myristate 13-acetate (PMA) (10 ng/mL) supplemented RPMI 1640 (Gibco, Leiden, The Netherlands). After 24 h, the culture medium was removed, and the cells were treated with the synthesized compounds at different concentrations ranging from 1–500 μM at 37 °C and 5% CO2. After this time, the MTT assay was performed. The cytotoxic concentration values (CC50) were obtained by fitting the data to a sigmoid dose-inhibition curve using GraphPad Prism 7.0 software (GraphPad Software Inc., San Diego, CA, USA). MIL and PMN were used as reference drugs for comparison.
Background: Tetrazolium assays rely on reduction of a dye to a coloured formazan, in cell work by metabolically active cells.

Another data set has as its system L. major promastigotes. Nature of the data set: Leishmanicidal activity against L. major promastigotes (MTT assay). The note with it: for IC50: Leishmania major, L. major promastigotes, 48 h incubation, MTT. The data set is classed as cell-based, Leishmania major. How it is done: as §1, §2
Where [4] appears, read: Leishmania infantum, 48 h, L. infantum promastigotes, 48 h incubation, MTT, compound alone, read-out: IC50.

Read-outs that look alike come from different tables or passages of the source. Some results are limits rather than exact numbers.

The IC50 is the midpoint of a concentration-inhibition curve. As usually defined, the CC50 is the concentration giving 50% cytotoxicity. On to `CCCCCCC(=O)[Se]CC(=O)O` [A4, 2-(heptanoylselanyl)acetic acid], for which the Effect entry in data set [1] (combination with AmB), in data set [1] (combination with MIL) and in data set [1] (combination with PMN) was “Non interaction (non-interaction as 0.5 < FICI < 4)” each time. Moreover, the values for the ƩFICI50 in data set [1] (combination with AmB), in data set [1] (combination with MIL) and in data set [1] (combination with PMN) were 0.71, 0.68 and 0.68, respectively. In addition, the ƩFICI in data set [1] is > 0.60. The IC50 in data set [2] (setting [4]) was < 40 µM. Besides, the cytotoxic concentration (CC50) at 48 h in data set [3] turned out to be 173 ± 8.6 µM.

For `O=C(O)C[Se]C(=O)C1CC1` [A5, 2-((cyclopropanecarbonyl)selanyl)acetic acid], the Effect entry in data set [1] (combination with AmB), in data set [1] (combination with MIL) and in data set [1] (combination with PMN) was “Non interaction (non-interaction as 0.5 < FICI < 4)” throughout. The ƩFICI50 in data set [1] (combination with AmB) is 0.70; in data set [1] (combination with MIL), 0.98; in data set [1] (combination with PMN) it was 0.61. Also, the ƩFICI in data set [1] is recorded as > 0.60. Also, the IC50 was 113 µM in the data set on L. major promastigotes and < 40 µM in data set [2] (setting [4]). In addition, the CC50 at 48 h in data set [3] was found to be 211 ± 9.3 µM.

In the case of `O=C(O)C[Se]C(=O)C1CCC1` [A6, 2-((cyclobutanecarbonyl)selanyl)acetic acid], in data set [1] (combination with AmB), the Effect result is recorded as “Non interaction (non-interaction as 0.5 < FICI < 4)” and the ƩFICI50 came out at 0.70. Moreover, in data set [1] (combination with MIL), the Effect result is given as “Synergy (synergy was defined as FICI < 0.5)” and the ƩFICI50 stood at 0.44. In data set [1] (combination with PMN), the Effect entry is on record as “Non interaction (non-interaction as 0.5 < FICI < 4)” and the ƩFICI50 is given as 0.54. Further, in the data set on L. major promastigotes (L. major, from SI values), the “times more selective than MIL” value amounted to 15 and the “times more selective than PMN” value is given as 5. In data set [2] (L. infantum, from SI values), the “fold more selective than MIL” value is 28 fold and the “fold more selective than PMN” value turned out to be 5 fold. Also, the CC50 at 48 h in data set [3] came to 178 ± 10.2 µM.

Regarding `O=C(O)C[Se]C(=O)C1CCCCC1` [A8, 2-((cyclohexanecarbonyl)selanyl)acetic acid], the Effect entry in data set [1] (combination with AmB) is recorded as “Non interaction (non-interaction as 0.5 < FICI < 4)”; in data set [1] (combination with MIL), “Synergy (synergy was defined as FICI < 0.5)”; in data set [1] (combination with PMN), “Non interaction (non-interaction as 0.5 < FICI < 4)”. For the same compound, the ƩFICI50 was found to be 0.52 in data set [1] (combination with AmB), 0.40 in data set [1] (combination with MIL) and 0.52 in data set [1] (combination with PMN). Besides, the IC50 in data set [2] (L. infantum promastigotes, 48 h incubation, MTT, compound alone, read-out: IC50) was 39.9 µM; in data set [2] (setting [4]), < 40 µM. Besides, the CC50 at 48 h in data set [3] turned out to be 147 ± 12.5 µM.

Turning to `O=C(O)CSC(=O)C1CC1` [B5, 2-((cyclopropanecarbonyl)thio)acetic acid], the IC50 in data set [2] (setting [4]) turned out to be 87.6 µM.

The compound `CCCCCCC(=O)[Se]CC(=O)OC` [C4, Methyl 2-(heptanoylselanyl)acetate] showed a concentration for half-maximal inhibition (IC50) in data set [2] (Leishmania infantum, 48 h) of 116 µM.

Consider `CCCCCCC(=O)SCC(=O)OC` [D4, Methyl 2-(heptanoylthio)acetate], for which the half-maximal inhibitory concentration (IC50) worked out at 87.3 µM in the data set with L. major promastigotes and 79.2 µM in data set [2] (setting [4]).

For `COC(=O)CSC(=O)C1CC1` [D5, Methyl 2-((cyclopropanecarbonyl)thio)acetate], the IC50 in the data set on L. major promastigotes was 81.8 µM; in data set [2] (setting [4]) it was 68.7 µM.

As for `COC(=O)CSC(=O)C1CCC1` [D6, Methyl 2-((cyclobutanecarbonyl)thio)acetate], the figures for the IC50 (in the data set with L. major promastigotes; in data set [2] (setting [4])) were 83.4 µM and 95.3 µM, respectively.

Consider `CCCCCCCCCCCCCCCCOP(=O)([O-])OCC[N+](C)(C)C` [MIL, miltefosine, reference compound], for which the IC50 in data set [2] (setting [4]) was determined as 31.9 µM. The CC50 at 48 h in data set [3] is 13.3 ± 2.8 µM.

For the compound `NC[C@@H]1O[C@H](O[C@H]2[C@@H](O)[C@H](O[C@@H]3[C@@H](O)[C@H](N)C[C@H](N)[C@H]3O[C@H]3O[C@H](CO)[C@@H](O)[C@H](O)[C@H]3N)O[C@@H]2CO)[C@H](N)[C@@H](O)[C@@H]1O` [PMN, paromomycin, reference compound], in data set [3], the 50% cytotoxic concentration (CC50) at 48 h worked out at 39 ± 13.7 µM.
